This is an account of results in patent US5496805A, “Inhibitors of neutral endopeptidase” (priority 1990, dated 1996).

Each structure is given as a SMILES string. Counter-ions that a name gives are not always drawn. Square brackets hold non-standard residues; d marks the D form. Peptide text beside a SMILES is read from it. Mpa = O=C(O)CCS

The target of this test is T1, neutral endopeptidase (Rattus norvegicus, UniProt P07861).
T1 sequence (P07861 1-750): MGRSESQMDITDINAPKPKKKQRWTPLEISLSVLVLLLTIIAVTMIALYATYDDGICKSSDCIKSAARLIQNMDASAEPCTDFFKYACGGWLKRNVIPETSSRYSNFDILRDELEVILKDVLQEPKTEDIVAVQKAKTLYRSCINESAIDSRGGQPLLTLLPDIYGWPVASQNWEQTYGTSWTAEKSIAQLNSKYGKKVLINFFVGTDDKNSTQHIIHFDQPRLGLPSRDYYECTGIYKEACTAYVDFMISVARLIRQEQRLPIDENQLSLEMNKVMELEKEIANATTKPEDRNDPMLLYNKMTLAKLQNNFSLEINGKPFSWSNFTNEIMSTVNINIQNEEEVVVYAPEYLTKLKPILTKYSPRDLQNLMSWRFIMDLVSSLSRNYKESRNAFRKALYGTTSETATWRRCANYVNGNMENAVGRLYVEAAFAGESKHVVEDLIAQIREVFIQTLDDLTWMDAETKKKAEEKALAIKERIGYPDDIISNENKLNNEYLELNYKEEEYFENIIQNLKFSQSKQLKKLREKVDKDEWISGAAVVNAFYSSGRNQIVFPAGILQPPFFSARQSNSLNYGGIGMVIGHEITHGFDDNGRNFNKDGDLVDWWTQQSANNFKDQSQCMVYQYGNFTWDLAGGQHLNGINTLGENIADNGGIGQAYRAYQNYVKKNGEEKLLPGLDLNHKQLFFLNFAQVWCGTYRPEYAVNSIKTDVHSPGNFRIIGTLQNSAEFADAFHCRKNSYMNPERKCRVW
The test is described as follows: biochemical. The conditions noted are these: enzyme purified from rat kidney; Dns-Gly-Phe-Arg 0.5 mM; pH 7.5; 37°, 30 minutes; inhibitor preincubated 10 minutes. As to the method:
The in vitro neutral endopeptidase activity is determined using a fluorometric assay procedure. The assay is based upon the cleavage of the fluorescent dansylated tripeptide Dns-Gly-Phe-Arg to form Dns-Gly. The latter is extracted from the acidified mixture by ethyl acetate and is strongly fluorescent.
The incubation mixture employed for the assay contains the substance Dns-Gly-Phe-Arg (0.5 mM), tris(hydroxymethyl)aminomethane -HCl buffer (pH 7.5, 50 mM), an enzyme preparation in 0.05% Triton X-100, and water or inhibitor diluted to a final volume of 0.25 ml. The enzyme preparation is purified from rat kidney according to the procedure described by Almenoff et al. in Biochemistry Vol. 22, p. 590-599 (1983). The inhibitor is preincubated for 10 minutes with the enzyme preparation and buffer before the reaction is initiated by the addition of the substrate. Incubation is carried out at 37° for 30 minutes and the reaction is stopped by the addition of 0.25 ml. 1N HCl and extraction of the Dns-Gly product into 1.5 ml. of ethyl acetate. Relative fluorescent intensity (RFI) of the ethyl acetate extract is measured using a Ferrand Spectofluorometer at excitation and emission wavelengths of 342 and 508 nm., respectively, corrected for the RFI of a zero-time control, and compared with assays lacking inhibitor.
Runs are made at different concentrations of test compound and by use of a mathematical model the IC50 is determined. The IC50 is the concentration of test compound that inhibits activity of the enzyme by 50%.
A word on the IC50: it is the point on the concentration scale where inhibition reaches its midpoint. A higher IC50 goes with weaker potency in that assay. `O=C(O)CCCCNC(=O)C(CS)Cc1ccccc1` (racemic) [Example 49, (±)-5-[[2-(Mercaptomethyl)-1-oxo-3-phenylpropyl]amino]pentanoic acid] yielded an IC50 of 0.022 µM.
The result for `O=C(O)CCCCCNC(=O)C(CS)Cc1ccccc1` (racemic) [Example 50, (±)-6-[[2-(Mercaptomethyl)-1-oxo-3-phenylpropyl]amino]hexanoic acid] reads 0.059 µM; that for `O=C(O)CCCCCCCCCCNC(=O)C(CS)Cc1ccccc1` (racemic) [Example 53, (±)-11-[[2-(Mercaptomethyl)-1-oxo-3-phenylpropyl]amino]undecanoic acid], 0.076 µM.
Compound `CC(C)CC(CS)C(=O)NCCC(=O)N[C@@H](CCCNC(=N)N)C(=O)O` (mixture of isomers) [Example 58, (±)-N-[N-[2-(Mercaptomethyl)-4-methyl-1-oxopentyl]-β-alanyl]-L-arginine] returned an IC50 of 0.095 µM.
The same measure for `CC(C)CC(CS)C(=O)N[C@@H](C)C(=O)O` (single isomer, unassigned; isomer a) [Example 12, N-[2-(Mercaptomethyl)-4-methyl-1-oxopentyl]-L-alanine (isomer A)]: 0.0033 µM; for `O=C(N[C@@H](Cc1ccccc1)C(=O)O)C(CS)Cc1ccccc1` (single isomer, unassigned; isomer a) [Example 31, N-[2,(Mercaptomethyl)-1-oxo-3-phenylpropyl]-L-phenylalanine (isomer A)]: 0.0053 µM.
The compound `O=C(O)C[C@H](Cc1ccccc1)NC(=O)C(CS)Cc1ccccc1` (single isomer, unassigned; isomer a) [Example 47] had an IC50 of 0.018 µM. Against the preceding compound, the IC50 is about 3.4-fold higher.
The same measure for `CC(C)CC(CS)C(=O)N[C@@H](C)C(=O)N[C@@H](CCCN=C(N)N)C(=O)O` (single isomer, unassigned; isomer a) [Example 56, N-[N-[2-(Mercaptomethyl)-4-methyl-1-oxopentyl]-L-alanyl]-L-arginine (isomer A)]: 0.023 µM; for `CC(C)C[C@H](NC(=O)[C@H](Cc1ccccc1)NC(=O)[C@@H]1CCCC[C@H]1S)C(=O)O` (single isomer, unassigned; isomer a) [Example 68, (trans)-N-[N-[(2-Mercaptocyclohexyl)carbonyl]-L-phenylalanyl]-L-leucine (isomer A)]: 1.2 µM.
The same measure for `CC(C)CC(CS)C(=O)N[C@@H](C)C(=O)O` (single isomer, unassigned; isomer b) [Example 13, N-[2-(Mercaptomethyl)-4-methyl-1-oxopentyl]-L-alanine (isomer B)]: 0.0022 µM; for `CCCC[C@H](NC(=O)C(CS)Cc1ccccc1)C(=O)O` (single isomer, unassigned; isomer b) [Example 30, N-[2,(Mercaptomethyl)-1-oxo,3-phenylpropyl]-L-norleucine (isomer B)]: 0.02 µM; for `O=C(N[C@@H](Cc1ccccc1)C(=O)O)C(CS)Cc1ccccc1` (single isomer, unassigned; isomer b) [Example 32, N-[2-(Mercaptomethyl-1-oxo-3-phenylpropyl]-L-phenylalanine (isomer B)]: 0.0089 µM.
The same measure for `O=C(O)C[C@H](Cc1ccccc1)NC(=O)C(CS)Cc1ccccc1` (single isomer, unassigned; isomer b) [Example 48]: 0.052 µM; for `CC(C)CC(CS)C(=O)N[C@@H](C)C(=O)N[C@@H](CCCN=C(N)N)C(=O)O` (single isomer, unassigned; isomer b) [Example 57, N-[N-[2-(Mercaptomethlyl)-4-methyl-1-oxopentyl]-L-alanyl]-L-arginine (isomer B)]: 0.028 µM.
Compound `O=C(CCS)N[C@@H](Cc1ccccc1)C(=O)O` [Example 2, N-(3-Mercapto-1-oxopropyl)-L-phenylalanine] yielded an IC50 of 0.38 µM.
The compound `C[C@H](CS)C(=O)N[C@@H](Cc1ccc(O)c(O)c1)C(=O)O` [Example 14, 3-Hydroxy-N-(D-3-mercapto-2-methyl-1-oxopropyl)-L-tyrosine] returned an IC50 of 0.091 µM.
The result for `C[C@@H](CS)C(=O)N[C@@H](Cc1ccc(O)c(O)c1)C(=O)O` [Example 15, 3-Hydroxy-N-(R-3-mercapto-2-methyl-1-oxopropyl)-L-tyrosine] reads 0.03 µM; that for `CC(C)C[C@H](NC(=O)[C@H](C)CS)C(=O)O` [Example 40, (S),N-(3-Mercapto-2-methyl-1-oxopropyl)-L-leucine], 0.19 µM.
`C[C@H](CS)C(=O)N[C@H](C(=O)O)[C@@H](C)O` [Example 41, (S)-N-(3-Mercapto-2-methyl-1-oxopropyl)-L-threonine] returned an IC50 of 0.73 µM.
The result for `C[C@H](CS)C(=O)N[C@@H](CC(=O)O)C(=O)O` [Example 42, (S)-N-(3-Mercapto-2-methyl-1-oxopropyl)-L-aspartic acid] reads 0.036 µM.
`CC[C@H](C)[C@H](NC(=O)[C@H](C)CS)C(=O)O` [Example 43, (S)-N-(3-Mercapto-2-methyl-1-oxopropyl)-L-isoleucine] registered an IC50 of 0.064 µM.
The result for `C[C@H](CS)C(=O)N[C@@H](CC(N)=O)C(=O)O` [Example 44, (S)-N^2-(3-Mercapto-2-methyl-1-oxopropyl)-L-asparagine] reads 0.22 µM; that for `O=C(O)CCCCCCCNC(=O)C(CS)Cc1ccccc1` (centres unmarked) [Example 51, 8-[[2-(Mercaptomethyl)-1-oxo-3-phenylpropyl]amino]-octanoic acid], 0.02 µM; that for `C[C@H](NC(=O)[C@H](Cc1ccccc1)NC(=O)CS)C(=O)O` [Example 60, N-[N-(Mercaptoacetyl)-L-phenylalanyl]-L-alanine], 0.031 µM.
The same measure for `O=C(CS)N[C@@H](Cc1ccccc1)C(=O)N[C@@H](Cc1ccccc1)C(=O)O` [Example 61, N-[N-(Mercaptoacetyl)-L-phenylalanyl]-L-phenylalanine]: 0.12 µM; for `O=C(CCS)N[C@@H](Cc1ccccc1)C(=O)N[C@@H](Cc1ccccc1)C(=O)O` [Example 62, N-[N-(3-Mercapto-1-oxopropyl)-L-phenylalanyl]-L-phenylalanine] ([Mpa]-Phe-Phe-OH): 0.74 µM.
Compound `CC(C)C[C@H](NC(=O)CS)C(=O)NCC(=O)O` [Example 63, N-[N-(Mercaptoacetyl)-L-leucyl]glycine] came in with an IC50 of 0.31 µM. This IC50 lies about 2.4-fold lower than the previous one.
Regarding `C[C@H](NC(=O)[C@H](S)Cc1ccccc1)C(=O)N1CCC[C@H]1C(=O)O` [Example 65], inhibition was half-maximal at 0.062 µM (IC50).
For `O=C(O)CC(=O)NC(CS)Cc1ccccc1` (centres unmarked) [Example 69, 3-[[1-(Mercaptomethyl)-2-phenylethyl]amino]-3-oxo-propanoic acid], the IC50 worked out at 0.012 µM.
Turning to `O=C(O)CCCCC(=O)NC(CS)Cc1ccccc1` (centres unmarked) [Example 70, 6-[[1-(Mercaptomethyl)-2-phenylethyl]amino]-6-oxohexanoic acid], half-maximal inhibition (IC50) required 0.0031 µM. Against the preceding compound, the IC50 is about 3.9-fold lower.
As to `O=C(O)CCCCCCC(=O)NC(CS)Cc1ccccc1` (centres unmarked) [Example 71, 8-[[1-(MercaDtomethyl)-2-phenylethyl]amino]-8-oxooctanoic acid], the IC50 worked out at 0.014 µM.
The same measure for `CC(C)C[C@H](NC(=O)C(Cc1ccccc1)CP(C)(=O)O)C(=O)O` (stereo partly drawn) [Example 74, N-[2-[(hydroxymethylphosphinyl)methyl]-1-oxo-3-phenylpropyl]-L-leucine, dilithium salt]: 0.95 µM.
The result for `O=C(O)CCNC(=O)C(Cc1ccccc1)CP(=O)(O)O` (centres unmarked) [Example 75, 3-[[1-Oxo-2-(phenylmethyl)-3-phosphonopropyl]amino]propanoic acid] reads 0.04 µM; that for `CC(C)C[C@H](NC(=O)[C@H](Cc1ccccc1)OP(=O)(O)CCc1ccccc1)C(=O)O` [Example 77, N-[(S)-2-[[Hydroxy(2-phenylethy1)phosphinyl]oxy]-1-oxo-3-phenylpropyl]-L-leucine, dilithium salt], 2.2 µM; that for `O=C(O)CCNC(=O)[C@H](Cc1ccccc1)N[C@@H](Cc1ccccc1)C(=O)O` [Example 78, 3-[[N-[(S)-1-Carboxy-2-phenylethyl]-L-phenylalanyl]-amino]propanoic acid], 0.013 µM.
